Measured values reported in patent publication US20210317140A1, “Heterocyclic Compounds and Methods of Use” (MEDIVATION TECHNOLOGIES, INC, priority 2013, published 2021).
“And” between values parts separate entries of the source, which are not always exact repeats. Identical values can stand only once.

Key:
BTK = target: T1, BTK (Homo sapiens, UniProt Q06187); assay: BTK kinase assay (HotSpot, 33P ATP); type: biochemical; details: for BTK @ 0.01 μM (% Inh): 0.01 μM compound; for BTK @ 0.1 μM (% Inh): 0.1 μM compound; for IC50: 10 dose IC50, 10 μM ATP
T1 construct: purchased Reaction Biology Corporation
T1 sequence (Q06187 whole entry): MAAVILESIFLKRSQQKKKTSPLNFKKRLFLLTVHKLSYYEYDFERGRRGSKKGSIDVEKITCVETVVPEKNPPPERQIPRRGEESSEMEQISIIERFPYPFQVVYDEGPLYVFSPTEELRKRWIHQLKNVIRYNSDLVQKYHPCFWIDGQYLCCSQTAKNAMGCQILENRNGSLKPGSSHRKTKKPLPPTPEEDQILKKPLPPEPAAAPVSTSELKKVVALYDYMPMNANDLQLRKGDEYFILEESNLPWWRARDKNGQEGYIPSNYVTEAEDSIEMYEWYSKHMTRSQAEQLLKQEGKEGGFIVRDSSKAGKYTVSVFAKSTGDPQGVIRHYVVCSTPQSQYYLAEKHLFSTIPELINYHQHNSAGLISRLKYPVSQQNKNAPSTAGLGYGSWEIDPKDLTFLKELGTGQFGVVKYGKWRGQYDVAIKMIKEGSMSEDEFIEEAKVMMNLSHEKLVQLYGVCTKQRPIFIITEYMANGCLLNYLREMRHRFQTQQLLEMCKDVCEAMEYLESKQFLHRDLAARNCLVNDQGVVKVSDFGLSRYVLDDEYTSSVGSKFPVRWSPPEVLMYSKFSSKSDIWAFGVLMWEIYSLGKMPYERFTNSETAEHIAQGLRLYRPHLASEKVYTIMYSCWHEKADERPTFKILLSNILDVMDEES
Procedure, shortened: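 In 20 mM Hepes (pH 7.5) with 10 mM MgCl2, 1 mM EGTA, 0.1 mM Na3VO4, 2 mM DTT, 0.02% Brij35, 0.02 mg/mL BSA and 1% DMSO, kinase and substrate were exposed to ten compound doses for 15–20 min.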

PI3Kδ = target: T2, PI3Kδ (Homo sapiens, UniProt O00329); assay: PI3Kδ kinase assay (HTRF, PIP3 detection); type: biochemical; details: for PI3Kδ @ 0.01 μM (% Inh): 0.01 μM compound; for PI3Kδ @ 0.1 μM (% Inh): 0.1 μM compound; for IC50: 10 dose IC50, 10 μM ATP
T2 construct: purchased Reaction Biology Corporation
T2 sequence (O00329 whole entry): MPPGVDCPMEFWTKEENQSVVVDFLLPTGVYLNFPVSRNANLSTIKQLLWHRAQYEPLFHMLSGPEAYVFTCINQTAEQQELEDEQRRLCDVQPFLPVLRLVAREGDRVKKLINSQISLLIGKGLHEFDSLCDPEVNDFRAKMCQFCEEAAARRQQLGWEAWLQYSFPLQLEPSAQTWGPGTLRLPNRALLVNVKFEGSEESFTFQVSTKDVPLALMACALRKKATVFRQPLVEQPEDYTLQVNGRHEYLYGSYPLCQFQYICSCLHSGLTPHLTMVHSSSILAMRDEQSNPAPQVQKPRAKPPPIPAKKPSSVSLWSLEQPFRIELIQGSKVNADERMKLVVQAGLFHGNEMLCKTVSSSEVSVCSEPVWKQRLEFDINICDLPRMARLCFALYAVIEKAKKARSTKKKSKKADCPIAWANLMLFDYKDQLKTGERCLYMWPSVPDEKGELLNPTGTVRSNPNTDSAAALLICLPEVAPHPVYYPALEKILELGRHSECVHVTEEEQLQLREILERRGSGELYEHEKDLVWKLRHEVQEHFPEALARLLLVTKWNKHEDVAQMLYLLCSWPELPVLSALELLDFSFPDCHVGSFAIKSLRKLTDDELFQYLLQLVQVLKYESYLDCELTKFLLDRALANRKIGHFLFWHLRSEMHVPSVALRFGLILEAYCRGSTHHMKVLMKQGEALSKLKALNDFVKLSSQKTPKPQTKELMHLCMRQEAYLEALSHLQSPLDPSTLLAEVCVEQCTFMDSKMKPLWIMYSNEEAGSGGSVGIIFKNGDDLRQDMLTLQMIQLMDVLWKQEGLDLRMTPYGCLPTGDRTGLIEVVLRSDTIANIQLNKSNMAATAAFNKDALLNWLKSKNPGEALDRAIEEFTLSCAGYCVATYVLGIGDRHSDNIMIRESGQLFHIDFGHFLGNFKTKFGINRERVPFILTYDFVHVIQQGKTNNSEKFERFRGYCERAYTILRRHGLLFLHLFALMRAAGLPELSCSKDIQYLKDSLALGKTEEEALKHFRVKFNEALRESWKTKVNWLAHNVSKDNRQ
T2 sequence (P27986 whole entry partner): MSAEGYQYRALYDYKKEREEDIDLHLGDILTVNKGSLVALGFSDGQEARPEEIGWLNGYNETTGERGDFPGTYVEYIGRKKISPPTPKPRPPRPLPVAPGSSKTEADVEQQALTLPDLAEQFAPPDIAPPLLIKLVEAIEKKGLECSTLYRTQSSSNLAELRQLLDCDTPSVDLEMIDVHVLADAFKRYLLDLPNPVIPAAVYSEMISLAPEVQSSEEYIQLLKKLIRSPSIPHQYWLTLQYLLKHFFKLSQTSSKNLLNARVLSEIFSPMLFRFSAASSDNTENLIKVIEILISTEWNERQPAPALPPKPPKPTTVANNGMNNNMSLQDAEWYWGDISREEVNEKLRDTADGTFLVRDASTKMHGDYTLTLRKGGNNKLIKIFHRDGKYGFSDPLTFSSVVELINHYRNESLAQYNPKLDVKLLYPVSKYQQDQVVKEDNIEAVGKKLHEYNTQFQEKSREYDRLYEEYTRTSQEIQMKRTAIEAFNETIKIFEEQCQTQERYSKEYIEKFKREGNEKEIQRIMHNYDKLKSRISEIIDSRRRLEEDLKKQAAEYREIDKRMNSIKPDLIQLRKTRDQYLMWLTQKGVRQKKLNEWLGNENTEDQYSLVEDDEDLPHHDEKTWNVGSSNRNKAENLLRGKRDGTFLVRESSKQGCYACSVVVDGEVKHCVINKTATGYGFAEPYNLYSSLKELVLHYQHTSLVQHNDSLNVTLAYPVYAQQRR
Procedure, shortened: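 PIP3 formation read by loss of energy transfer as it displaces biotin-PIP3 from a Eu anti-GST/GST-PH/streptavidin-APC complex, calibrated against PIP3 standards.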

| SMILES | BTK @ 0.01 μM (% Inh) (BTK; 10 μM ATP) | BTK @ 0.1 μM (% Inh) (BTK; 10 μM ATP) | PI3Kδ @ 0.01 μM (% Inh) (PI3Kδ; 10 μM ATP) | PI3Kδ @ 0.1 μM (% Inh) (PI3Kδ; 10 μM ATP) | IC50 (BTK) | IC50 (PI3Kδ) | BTK @ 1 μM (% Inh) (BTK; 1 μM compound, 10 μM ATP) | PI3Kδ @ 1 μM (% Inh) (PI3Kδ; 1 μM compound, 10 μM ATP) |
| --- | --- | --- | --- | --- | --- | --- | --- | --- |
| COc1cc(-c2nn(C3Cc4ccccc4C3)c3ncnc(N)c23)cc(F)c1F [Compound No. 91, 3-(3,4-difluoro-5-methoxyphenyl)-1-(2,3-dihydro-1H-inden-2-yl)-1H-pyrazolo[3,4-d]pyrimidin-4-amine] | 8 | 33.72 | −1.19 | 19.59 | – | – | – | – |
| COc1cc(-c2nn(C3Cc4ccccc4C3)c3ncnc(N)c23)cc(C(F)(F)F)c1F [Compound No. 92, 1-(2,3-dihydro-1H-inden-2-yl)-3-[4-fluoro-3-methoxy-5-(trifluoromethyl)phenyl]-1H-pyrazolo[3,4-d]pyrimidin-4-amine] | 1.24 | 3.3 | 11.71 | 9.31 | – | – | – | – |
| N#Cc1ccc(-c2nn(C3Cc4ccccc4C3)c3ncnc(N)c23)cc1O [Compound No. 94, 4-[4-amino-1-(2,3-dihydro-1H-inden-2-yl)-1H-pyrazolo[3,4-d]pyrimidin-3-yl]-2-hydroxybenzonitrile] | 8.16 | 22.48 | 29.77 | 71.5 | – | – | – | – |
| COc1c(Cl)ccc(-c2nn(C3Cc4ccccc4C3)c3ncnc(N)c23)c1Cl [Compound No. 95, 3-(2,4-dichloro-3-methoxyphenyl)-1-(2,3-dihydro-1H-inden-2-yl)-1H-pyrazolo[3,4-d]pyrimidin-4-amine] | 7 | 11.01 | 3.09 | 25.54 | – | – | – | – |
| Nc1ccc(-c2nn(C3Cc4ccccc4C3)c3ncnc(N)c23)cn1 [Compound No. 96, 5-[4-amino-1-(2,3-dihydro-1H-inden-2-yl)-1H-pyrazolo[3,4-d]pyrimidin-3-yl]pyridin-2-amine] | 7.68 | 12.19 | 32.92 | 40.18 | – | – | – | – |
| N#Cc1cc(-c2nn(C3Cc4ccccc4C3)c3ncnc(N)c23)ccc1F [Compound No. 97, 5-[4-amino-1-(2,3-dihydro-1H-inden-2-yl)-1H-pyrazolo[3,4-d]pyrimidin-3-yl]-2-fluorobenzonitrile] | 11.7 | 14.06 | 24.66 | 29.59 | – | – | – | – |
| Cn1ncc2c(-c3nn(C4Cc5ccccc5C4)c4ncnc(N)c34)cccc21 [Compound No. 98, 1-(2,3-dihydro-1H-inden-2-yl)-3-(1-methyl-1H-indazol-4-yl)-1H-pyrazolo[3,4-d]pyrimidin-4-amine] | 8.24 | 12.62 | 14.09 | 19.14 | – | – | – | – |
| Nc1ncnc2c1c(-c1ccc3c(c1)NCCO3)nn2C1Cc2ccccc2C1 [Compound No. 99, 1-(2,3-dihydro-1H-inden-2-yl)-3-(3,4-dihydro-2H-1,4-benzoxazin-6-yl)-1H-pyrazolo[3,4-d]pyrimidin-4-amine] | 17.69 | 56.81 | 17.4 | 39.74 | 0.0796 µM | 0.167 µM | – | – |
| Nc1ncnc2c1c(-c1ccc(O)c(O)c1)nn2C1CCc2ccccc2C1 (centres unmarked) [compound 1, 4-(4-amino-1-tetralin-2-yl-pyrazolo[3,4-d]pyrimidin-3-yl)benzene-1,2-diol] | – | 12.61 | – | 48.6 | – | – | – | – |
| COc1cc(F)cc(-c2nn(C3CCc4ccccc43)c3ncnc(N)c23)c1 (centres unmarked) [compound 4, 1-(2,3-dihydro-1H-inden-1-yl)-3-(3-fluoro-5-methoxyphenyl)-1H-pyrazolo[3,4-d]pyrimidin-4-amine] | – | – | – | – | 0.584 µM | 1.83 µM | – | – |
| COc1cc(F)cc(-c2nn(C3Cc4ccccc4C3)c3ncnc(N)c23)c1 [compound 5, 1-(2,3-dihydro-1H-inden-2-yl)-3-(3-fluoro-5-methoxyphenyl)-1H-pyrazolo[3,4-d]pyrimidin-4-amine] | – | 26.26 | – | 25.0 | 1.97 µM and 1.1 µM | 2.79 µM and 1.22 µM | 76.16 | 54.63 |
| COc1cc(F)cc(-c2nn(C3CCc4ccccc4C3)c3ncnc(N)c23)c1 (centres unmarked) [compound 7, 3-(3-fluoro-5-methoxyphenyl)-1-(1,2,3,4-tetrahydronaphthalen-2-yl)-1H-pyrazolo[3,4-d]pyrimidin-4-amine] | – | – | – | – | 0.891 µM | 1.34 µM | – | – |
| Nc1ncnc2c1c(-c1ccc(F)c(O)c1)nn2C1CCc2ccccc21 (centres unmarked) [compound 10, 5-(4-amino-1-indan-1-yl-pyrazolo[3,4-d]pyrimidin-3-yl)-2-fluoro-phenol] | – | 58.79 | – | 22.39 | – | – | – | – |
| Nc1ncnc2c1c(-c1cc(O)cc(F)c1)nn2C1CCCc2ccccc21 (centres unmarked) [compound 11, 3-(4-amino-1-tetralin-1-yl-pyrazolo[3,4-d]pyrimidin-3-yl)-5-fluoro-phenol] | – | 22.06 | – | 45.08 | – | – | – | – |
